Read-outs that look alike come from different tables or passages of the source. Marks after values point to notes of the source that are not given here.
Columns and labels:
rats = assay: Physical dependence test: induced withdrawal test for the rats; details: rat, in vivo
Protocol: The compound group was administered (ig) twice a day according to the dose increasing principle, at daily doses of 0.5, 1.0, 1.5, 2.0, 2.5, 3.0 g/kg. The dose was increased every day from 0.5 g/kg to 3.0 g/kg on day 6 which was adopted the same on day 7. The negative control group was given (ig) the same volume of vegetable oil per day at the same time and for the same times as the compound group. On day 8, the rats in each group were given naloxone (5 mg/kg, ip) to induce withdrawal, and the withdrawal status of the rats within 30 min and the weight change one hour before and after the inducement were observed. The evaluation criteria of withdrawal symptoms of rats were established by referring to the Tomoji Yanagita evaluation criteria and our pre-experimental results (see Appendix Table 17). The withdrawal scores and weight loss values of each group of rats were statistically processed. Weight loss value=weight before inducement−weight after inducement.

Solubility = type: physicochemical
mice [1] = assay: Acetic acid writhing test of mice; type: in vivo, Kunming mice; details: for Times of writhing: 0.6% acetic acid ip, in 20 min
Protocol: Forty Kunming mice, male, were fasted for 12 h before the experiment but free to drink water. They were randomly divided into 4 groups: a blank control group, a low dose Compound group, a high dose Compound group, and a positive control group. […] The mice were administered (ig) at a low dose (0.4 g/kg) and a high dose (0.8 g/kg) of the compound, at a volume of 0.2 ml per 10 g body weight. The positive control group was administered (ip) methadone (20 mg/kg) and the blank control group was given (ig) the same volume of normal saline. Forty-five minutes after administration, each mouse was given (ip) 0.6% acetic acid, 0.2 ml for each. The mice were then observed for writhing reaction, with abdominal contraction and hind limb extension or hip elevation regarded as positive. Times of writhing in 20 min were recorded starting from 5 min after acetic acid injection. The analgesic effect was evaluated by taking completely inhibiting writhing reaction induced by acetic acid as an indicator.

morphine-dependent rats = assay: Therapeutic effect on naloxone-induced withdrawal symptoms of morphine-dependent rats; type: in vivo, Sprague-Dawley (SD) rats; details: for Scores of induced withdrawal symptoms of rats: naloxone 5.0 mg/kg ip, 30 min
Protocol: The administration continued for 3 days for each group of rats. Rats were free to drink and eat. Naloxone (5.0 mg/kg, ip) was given 45 min after administrations on d1 and d3 during the treatment to induce withdrawal symptoms, and withdrawal reaction in 30 min and body weights one hour before and after the inducement were observed.
Times of shaking like a wet dog, stereotyped acts, erecting and jumping in 30 minutes were directly scored; symptoms such as ptosis, irritability, tooth tremor, chewing, pilus erection, abnormal posture and rapid respiration were scored every 5 minutes; symptoms such as diarrhea, lacrimation, salivation and rhinorrhea were scored every 30 minutes. The sum of all scores was the total score of the withdrawal reaction. See Appendix Table 2.

[2] = system: morphine-induced place preference of mice; assay: Conditioned place preference of morphine-induced mice; type: in vivo, Kunming mice
Protocol: The mice were acclimatized for 3 days, the natural place preference time of the mice was measured before the administration, so that the mice with obvious preference on one cuboid of the experimental box were excluded to clear the effect of unconditional place preference on the results. […] The observation was conducted under sound insulation conditions. […] Thus, the white cuboid was used as the non-preferred side (i.e., the companion box).
After 6 consecutive days of training and administration, the mice developed conditioned place preference.
Each group was administered for 3 consecutive days.

mice [3] = details: mouse, in vivo; for Duration of mice staying in companion box: both, Kunming
Source text: A conditioned place preference box was composed of black and white cuboids (30 cm×15 cm×15 cm), a movable partition plate is arranged in the middle of the box body to divide the box into two cuboids of the same volume, and the rat and mice can freely move from one cuboid to another when the partition plate is removed. Inner surfaces of one cuboid of the box body except the glass panel is painted black, the bottom plate is made to be a rough surface by using a soft blanket, the other cuboid of the box body except the glass surface is painted white, the bottom plate is made to be a smooth surface, and the whole experimental box has visual and tactile cues.
Mice were tested for natural preference one day prior to dosing to eliminate mice with significant preference on one side of the box and to exclude the effects of unconditioned place preference on the experimental results.
Each group of animals was administered twice daily at an interval of 8 hours (8:00, 16:00). […] The mice were placed in the white cuboid, which was the non-preferred side, after administration, and placed in the black cuboid, which was the preferred side, after administration of normal saline. The mice were kept in the box for 45 min, trained for 6 days. The place preference test was performed 24 h after the last administration. The partition plate of the preferred cuboid was removed, the mice were placed in the middle of the box one by one and observed for 15 minutes, and the duration of each of the mice staying in each cuboid was recorded on the basis of the positions of their heads.

mice [4] = assay: Morphine-induced hyperexcitability test of mice; type: in vivo, Kunming mice
mice [5] = assay: Amphetamine-induced hyperexcitability test of mice; type: in vivo, Kunming mice
Protocol: Forty Kunming mice, half males and half females, were fasted for 12 h but free to drink water. The mice were randomly divided into four groups: a blank control group, a low does Compound group (0.4 g/kg, ig), a high dose Compound group (0.8 g/kg, ig) and a positive drug control group (Estazolam, 2 mg/kg). The mice were placed into the YLS-1A multifunctional recorder for spontaneous activities of small animals. After 5 minutes of adaptation, the number of the mice's spontaneous activities before administration were recorded, and the recording lasted for 10 minutes. The room was kept quiet during recording, at a room temperature of 20-24° C. After this, each group of mice was administered according to the above doses, and the blank control group was given the same volume of normal saline (ig). Thirty minutes after administration, each mouse was given an intraperitoneal injection of amphetamine (8 mg/kg). Fifteen minutes later, the mice were placed in the recorder to observe and record the number of activities within 10 min.

[6] = Before administration, high dose group
[7] = Before administration, low dose group

CC1(C)O[C@H]2CC[C@@]3(C)[C@@H]([C@@H](O)[C@H](O)[C@@H]3[C@@](C)(O)CC[C@@H]3OC(C)(C)[C@H]4CC[C@]3(C)O4)[C@]2(C)CC[C@H]1O [the compound, limaxol A]
Withdrawal symptoms after administration of the compound, rats (rats): no obvious withdrawal symptoms | solubility (Solubility; in acid and alkali): insoluble | solubility (Solubility; in ethanol, ethyl acetate, trichloromethane (hot)): soluble | solubility (Solubility; in methanol, acetone): easily soluble | solubility (Solubility; in trichloromethane (cold)): slightly soluble | solubility (Solubility; in water): insoluble | Times of writhing (mice [1]; high dose 0.8 g/kg ig): 39.6 ± 13.21 | Times of writhing (mice [1]; low dose 0.4 g/kg ig): 37.10 ± 15.69 | Analgesic effect, acetic acid writhing test (mice [1]; single administration 0.4, 0.8 g/kg, ig): no obvious analgesic effect | Body Weight Change (Body Weight before Inducement − Body Weight after Inducement) (morphine-dependent rats; d 1, high dose 0.6 g/kg ig): 14.7 ± 4.08 g | Scores of induced withdrawal symptoms of rats (morphine-dependent rats; d 1, high dose 0.6 g/kg ig): 53.8 ± 16.23 | Body Weight Change (Body Weight before Inducement − Body Weight after Inducement) (morphine-dependent rats; d 1, low dose 0.3 g/kg ig): 11.8 ± 3.25 g | Scores of induced withdrawal symptoms of rats (morphine-dependent rats; d 1, low dose 0.3 g/kg ig): 74.9 ± 42.03 | Body Weight Change (Body Weight before Inducement − Body Weight after Inducement) (morphine-dependent rats; d 3, high dose 0.6 g/kg ig): 1.9 ± 2.13 g | Scores of induced withdrawal symptoms of rats (morphine-dependent rats; d 3, high dose 0.6 g/kg ig): 22.1 ± 10.90 | Body Weight Change (Body Weight before Inducement − Body Weight after Inducement) (morphine-dependent rats; d 3, low dose 0.3 g/kg ig): 4.5 ± 2.59 g | Scores of induced withdrawal symptoms of rats (morphine-dependent rats; d 3, low dose 0.3 g/kg ig): 25.5 ± 12.26 | Effect on changes of the body weight of rats (morphine-dependent rats; two doses (0.3, 0.6 g/kg) ig): no significant effect | Effect on withdrawal symptoms of morphine-dependent rats (morphine-dependent rats; two doses (0.3, 0.6 g/kg) ig): partially control the withdrawal symptoms | Duration of mice staying in companion box ([2]; After administration, high dose 0.8 g/kg ig 3 days + morphine 9 mg/kg sc, 15 min observation): 511.8 ± 90.66*^ΔΔ s | Duration of mice staying in companion box ([2]; After administration, low dose 0.4 g/kg ig 3 days + morphine 9 mg/kg sc, 15 min observation): 438.1 ± 116.45^#Δ s | Duration of mice staying in companion box ([2]; Before administration (base line), high dose 0.8 g/kg + morphine 9 mg/kg group): 256.3 ± 114.43 s | Duration of mice staying in companion box ([2]; Before administration (base line), low dose 0.4 g/kg + morphine 9 mg/kg group): 296.0 ± 142.93 s | Effect on conditioned place preference of the morphine-induced mice ([2]; two doses (0.4, 0.8 g/kg) ig for 3 days): no significant effect | Duration of mice staying in companion box (mice [3]): 334.8 ± 94.96 s | Duration of mice staying in companion box (mice [3]; 6 days): 385.2 ± 188.16 s | Psychological dependence, place preference test (mice [3]): no tendency of psychological dependence | Effect on excitability induced by morphine (mice [4]; 0.4, 0.8 g/kg, ig): inhibit the increase of excitability induced by morphine and amphetamine | Number of activities, morphine-induced excitability (mice [4]; After administration, high dose 0.8 g/kg ig, morphine 10 mg/kg): 112.7 ± 23.04**^Δ▴▴ Times per min | Number of activities, morphine-induced excitability (mice [4]; After administration, low dose 0.4 g/kg ig, morphine 10 mg/kg): 102.0 ± 46.29**^Δ▴ Times per min | Number of activities, morphine-induced excitability (mice [4]; [6]): 185.4 ± 36.93 Times per min | Number of activities, morphine-induced excitability (mice [4]; [7]): 191.5 ± 35.53 Times per min | Effect on excitability induced by amphetamine (mice [5]; 0.4, 0.8 g/kg, ig): inhibit the increase of excitability induced by morphine and amphetamine | Number of activities, amphetamine-induced excitability (mice [5]; After administration, high dose 0.8 g/kg ig, amphetamine 8 mg/kg): 132.6 ± 26.26**^Δ▴▴ Times per min | Number of activities, amphetamine-induced excitability (mice [5]; After administration, low dose 0.4 g/kg ig, amphetamine 8 mg/kg): 130.6 ± 32.11**^Δ▴ Times per min | Number of activities, amphetamine-induced excitability (mice [5]; [6]): 197.4 ± 39.30 Times per min | Number of activities, amphetamine-induced excitability (mice [5]; [7]): 192.0 ± 45.06 Times per min

From US11000555B2, “Method for preparing a limax compound and therapeutic use thereof” (GUANGXI JIUFU BIOTECHNOLOGY CO., LTD, priority 2017, dated 2021)
